Patent publication US20120251448A1, “Compounds for Use in the Detection of Neurodegenerative Diseases” (priority 2011, published 2012)
Where two headings read alike, the source gives them in different places.

Legend:
α-synuclein aggregates = α-synuclein aggregates (Homo sapiens, UniProt P37840); experiment: in vitro competition binding assay with [3H] positive reference compound #1 on α-synuclein aggregates
Description: In order to assess relative binding affinities of the test compounds for aggregated α-synuclein, competition assays were set up with a radiolabeled molecule already known to bind to α-synuclein fibrils and non-radiolabeled test compounds. In order to induce its aggregation, α-synuclein was incubated in phosphate buffered saline (PBS, pH 7.4) at 37° C. for three days with shaking (1,400 rpm). Competitive binding assays were carried out in 12×75 mm borosilicate glass tubes. […] The mixture was incubated for 120 min at 37° C., and the bound and the free radioactivity were separated by vacuum filtration through Whatman GF/B filters using a Brandel M-24R cell harvester, followed by washing with PBS buffer three times. […] IC50 values were determined by a non-linear, least squares regression analysis.

[1] = test system: amyloid-β peptide of Alzheimer's disease; experiment: binding affinity for amyloid-β peptide (data not shown)
[2] = competition against [3H] positive reference compound #1 (100-200 nM), 120 min at 37° C., PBS, Ki by Cheng-Prusoff from IC50

Row | Ki (α-synuclein aggregates; [2]) | Ki (α-synuclein aggregates) | SMILES | binding affinity for the amyloid-β peptide [1]
1 | 466 nM | – | Oc1ccc(-c2nnc(-c3ccc(O)c(O)c3)o2)cc1O [SA-67] | –
2 | 697 nM | – | Oc1ccc(-c2cn(-c3ccc(O)c(O)c3)nn2)cc1O [SA-68] | –
3 | – | 89 nM | Oc1ccc(-c2cnc(-c3ccc(O)c(O)c3)s2)cc1O [SA-64] | does not show significant binding affinity
4 | 124 nM | – | Oc1ccc(-c2nsc(-c3ccc(O)c(O)c3)n2)cc1O [SA-57] | –
5 | – | 370 nM | Oc1ccc(-c2nnc(-c3cc(O)c(O)cc3Br)o2)cc1O [SA-55] | –
6 | 3100 nM | – | Oc1ccc(-c2cc(-c3ccc(O)c(O)c3)c(-c3ccc(O)c(O)c3)s2)cc1O [SA-61] | –
7 | 1640 nM | – | Oc1ccc(-c2nc3cc(O)c(O)cc3o2)cc1O [SA-54] | –
8 | 659 nM | – | Oc1ccc(-c2cnc(-c3ccc(O)c(O)c3)o2)cc1O [SA-70] | –
